The numbers were not newly measured in patent US20250121046A1, “MRNA THERAPEUTIC COMPOSITIONS” (Nutcracker Therapeutics, Inc., priority 2022, published 2025), which cites them from elsewhere.

Data set [1] has as its system cervical cancer whose tumors express PD-L1 (CPS≥1). Particulars: single agent, disease progression on or after chemotherapy, KEYNOTE-158; cited from earlier work.
Data set [2] shares this test system. The following applies: in combination with chemotherapy, with or without bevacizumab; cited from earlier work.

For the substance pembrolizumab [KEYTRUDA], the objective response entry in data set [1] is on record as “around 14%”. Besides, the overall survival result in data set [2] was “improvements”.
